US20220401514A1, “ANTIMICROBIAL, BACTERIOPHAGE-DERIVED POLYPEPTIDES AND THEIR USE AGAINST GRAM-NEGATIVE AND ACID-FAST BACTERIA” (CONTRAFECT CORPORATION, priority 2019, published 2022)
Like-named read-outs stand apart in the source and are kept apart here.

How the values were obtained:
[1] = test system: carbapenem-resistant P. aeruginosa clinical isolate CFS-1292; experiment: MIC by modified CLSI broth microdilution against P. aeruginosa CFS-1292 (CAA, CAA + human serum); type: cell-based, Pseudomonas aeruginosa; conditions: for MIC (μg/mL) against CFS-1292 in 100% CAA (1st run/2nd run): 1st run or single value
Klebsiella pneumoniae = type: cell-based; conditions: for MIC50 / MIC100 / MIC Range: K. pneumoniae isolates (n per peptide in table); for MIC: Klebsiella pneumoniae HM-44, CAA supplemented with human serum
Experimental: (§1) Determination of Minimal Inhibitory Concentrations (MIC).
Additional MIC testing was performed for several peptides against the ESKAPE pathogens Escherichia coli, Enterobacter cloacae, Klebsiella pneumoniae, and Acinetobacter baumannii, in CAA supplemented with human serum (Table D).

[2] = test system: M. kansasii Hauduroy ATCC 12478; experiment: 45 hr MIC against M. kansasii (NTM), Mueller Hinton broth; type: cell-based, Mycobacterium kansasii
Pseudomonas aeruginosa = experiment: microbe, parasite or virus in culture; type: cell-based; conditions: P. aeruginosa isolates (n per peptide in table)
Acinetobacter baumannii = experiment: microbe, parasite or virus in culture; type: cell-based; conditions: for MIC50 / MIC100 / MIC Range: A. baumannii isolates (n per peptide in table); for MIC: Acinetobacter baumannii ATCC BAA 747, CAA supplemented with human serum
M. avium = experiment: 45 hr MIC against M. avium (NTM); type: cell-based, Mycobacterium avium; conditions: M. avium Chester ATCC 700898
M. fortuitum = experiment: 45 hr MIC against M. fortuitum (NTM); type: cell-based, Mycobacterium fortuitum; conditions: M. fortuitum subsp. Fortuitum da Costa Cruz. ATCC 6841
Enterobacter cloacae = experiment: microbe, parasite or virus in culture; type: cell-based; conditions: for MIC50 / MIC100 / MIC Range: E. cloacae isolates (n per peptide in table); for MIC: Enterobacter cloacae ATCC 13047, CAA supplemented with human serum
Procedure, shortened: (§2)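 Read-out is the minimal inhibitory concentration of each peptide, measured in serum-supplemented CAA.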

Escherichia coli = experiment: microbe, parasite or virus in culture; type: cell-based; conditions: for MIC50 / MIC100 / MIC Range: E. coli isolates (n per peptide in table); for MIC: Escherichia coli ATCC 25922, CAA supplemented with human serum
Procedure, shortened: as §2

S. maltophilia = experiment: MIC against S. maltophilia isolates; type: cell-based, Stenotrophomonas maltophilia; conditions: S. maltophilia isolates (n per peptide in table)
Experimental: as §1
In addition to the results discussed above in Example 3, further testing was conducted on several Chp peptides. MIC values were determined against different species, including P. aeruginosa, K. pneumoniae, A. baumannii, E. cloacae, E. coli, and S. maltophilia, and the results are presented below in Tables 40-45, wherein n=number of isolates tested for each species and MIC is measured as μg/mL.

[3] = Stability assessment in 100% CAA; type: in vitro ADME; set-up: unit not given beside the values
Experimental: Stability was assessed after incubation in 100% human serum at 37° C. after 10 minutes, 1 hour, and 2 hours.
Stability assessment was further conducted in 100% CAA and rabbit serum using the same methodology discussed above.

M. intracellulare = experiment: 45 hr MIC against M. intracellulare (NTM); type: cell-based, Mycobacterium intracellulare; conditions: M. intracellulare (Cuttino and McCabe) Runyon ATCC 13950
M. smegmatis = experiment: 45 hr MIC against M. smegmatis (NTM), Mueller Hinton broth; type: cell-based, Mycobacterium smegmatis
M. scrofulaceum = experiment: 45 hr MIC against M. scrofulaceum (NTM); type: cell-based, Mycobacterium scrofulaceum; conditions: M. scrofulaceum Prissick and Masson ATCC 19981
[4] = test system: carbapenem-resistant bacterial strains; experiment: organism not typed; type: cell-based
Description: as §1

[5] = test system: Mycobacterium tuberculosis strains
Experimental: MIC values for various Chp peptides were determined using the CLSI method for broth microdilution in 96-well microtiter format.
Next, MIC values for various Chp peptides were determined using the CLSI method above for broth microdilution in 96-well microtiter format for two different Mycobacterium tuberculosis strains. The MIC was determined as explained above for the NTM strains.

[6] = carbapenem-resistant isolate PA19
[7] = carbapenem-resistant isolate PA20
[8] = carbapenem-resistant isolate PA21
[9] = carbapenem-resistant isolate PA22
[10] = carbapenem-resistant isolate PA23
[11] = carbapenem-resistant isolate PA24
[12] = carbapenem-resistant isolate WLC-452
[13] = Mycobacterium tuberculosis (Zopf) Lehmann and Neumann ATCC 25177
[14] = Mycobacterium tuberculosis (Zopf) Lehmann and Neumann ATCC 35817

For “MRRPRKMNYKKSKRMFSRTAARTHRKNSLRGSRPMRGGIRL [Gkh1]”, the “MIC (μg/mL) against CFS-1292 in 100% CAA (1st run/2nd run)” value (from here on “MIC (μg/mL) against CFS-1292 in 100% CAA”) [1] was 1 µg/mL, the “MIC (μg/mL) against CFS-1292 in CAA + […] human serum” value [1] was 1 µg/mL and the MIC50 (Klebsiella pneumoniae) was 4 µg/mL. The MIC100 (Klebsiella pneumoniae) was 8 µg/mL, the “MIC Range” value (Klebsiella pneumoniae) was 1 to 8 µg/mL and the MIC (Klebsiella pneumoniae) was 0.5 µg/mL. The “45 hr MIC” value [2] was 2 µg/mL, the MIC50 (Pseudomonas aeruginosa) was 8 µg/mL and the MIC100 (Pseudomonas aeruginosa) was greater than 8 µg/mL. For the same sequence, the MIC50 (Acinetobacter baumannii) was 0.5 µg/mL, the MIC100 (Acinetobacter baumannii) was 1 µg/mL and the “MIC Range” value (Acinetobacter baumannii) was 0.25 to 2 µg/mL. For the same sequence, the MIC (Acinetobacter baumannii) was 2 µg/mL, the “45 hr MIC” value (M. avium) was 4 µg/mL and the “45 hr MIC” value (M. fortuitum) was 1 µg/mL. For the same sequence, the MIC50 (Enterobacter cloacae) was 1 µg/mL, the MIC100 (Enterobacter cloacae) was 2 µg/mL and the “MIC Range” value (Enterobacter cloacae) was 0.5 to 8 µg/mL. The MIC (Enterobacter cloacae) was 32 µg/mL, the MIC50 (Escherichia coli) was 2 µg/mL and the MIC100 (Escherichia coli) was 2 µg/mL. For the same sequence, the “MIC Range” value (Escherichia coli) was 0.5 to 8 µg/mL, the MIC (Escherichia coli) was 1 µg/mL and the MIC50 (S. maltophilia) was greater than 8 µg/mL. The MIC100 (S. maltophilia) was greater than 8 µg/mL, the “MIC (100% CAA)” value [3] was 0.5 and the “45 hr MIC” value (M. intracellulare) was 4 µg/mL. For the same sequence, the “45 hr MIC” value (M. smegmatis; M. smegmatis MC^2 155, Run #1) was 4 µg/mL, the “45 hr MIC” value (M. smegmatis; M. smegmatis MC^2 155, Run #2) was 4 µg/mL and the “45 hr MIC” value (M. scrofulaceum) was 8 µg/mL. It also gave an MIC [4, 6] of 2 µg/mL, an MIC [4, 7] greater than 8 µg/mL and an MIC [4, 8] greater than 8 µg/mL. It also gave an MIC [4, 9] greater than 8 µg/mL, an MIC [4, 10] greater than 8 µg/mL and an MIC [4, 11] of 8 µg/mL. For the same sequence, the MIC [4, 12] was 2 µg/mL, the MIC [5, 13] was 32 µg/mL and the MIC [5, 14] was 4 µg/mL.

For “MSKKRSRMSRRRSKKLFSKTALRTKSVNTRPPMRGGFRF [Chp8]”, the “MIC (μg/mL) against CFS-1292 in 100% CAA” value [1] was 0.5 µg/mL, the “MIC (μg/mL) against CFS-1292 in CAA + […] human serum” value [1] was 2 µg/mL and the MIC50 (Klebsiella pneumoniae) was 4 µg/mL. For the same sequence, the MIC100 (Klebsiella pneumoniae) was 8 µg/mL, the “MIC Range” value (Klebsiella pneumoniae) was 2 to 8 µg/mL and the MIC (Klebsiella pneumoniae) was 4 µg/mL. The “45 hr MIC” value [2] was 4 µg/mL, the MIC50 (Pseudomonas aeruginosa) was 8 µg/mL and the MIC100 (Pseudomonas aeruginosa) was greater than 8 µg/mL. The MIC50 (Acinetobacter baumannii) was 0.5 µg/mL, the MIC100 (Acinetobacter baumannii) was 1 µg/mL and the “MIC Range” value (Acinetobacter baumannii) was 0.25 to 2 µg/mL. For the same sequence, the MIC (Acinetobacter baumannii) was 2 µg/mL, the “45 hr MIC” value (M. avium) was 8 µg/mL and the “45 hr MIC” value (M. fortuitum) was 2 µg/mL. For the same sequence, the MIC50 (Enterobacter cloacae) was 2 µg/mL, the MIC100 (Enterobacter cloacae) was 4 µg/mL and the “MIC Range” value (Enterobacter cloacae) was 1 to 8 µg/mL. The MIC (Enterobacter cloacae) was 16 µg/mL, the MIC50 (Escherichia coli) was 2 µg/mL and the MIC100 (Escherichia coli) was 4 µg/mL. For the same sequence, the “MIC Range” value (Escherichia coli) was 0.5 to 4 µg/mL, the MIC (Escherichia coli) was 0.5 µg/mL and the MIC50 (S. maltophilia) was greater than 8 µg/mL. The MIC100 (S. maltophilia) was greater than 8 µg/mL, the “MIC (100% CAA)” value [3] was 0.5 and the “45 hr MIC” value (M. intracellulare) was 4 µg/mL. The “45 hr MIC” value (M. smegmatis; M. smegmatis MC^2 155, Run #1) was 4 µg/mL, the “45 hr MIC” value (M. smegmatis; M. smegmatis MC^2 155, Run #2) was 8 µg/mL and the “45 hr MIC” value (M. scrofulaceum) was 4 µg/mL. The MIC [4, 6] was 1 µg/mL, the MIC [4, 7] was greater than 8 µg/mL and the MIC [4, 8] was greater than 8 µg/mL. The MIC [4, 9] was greater than 8 µg/mL, the MIC [4, 10] was greater than 8 µg/mL and the MIC [4, 11] was 8 µg/mL. For the same sequence, the MIC [4, 12] was 4 µg/mL, the MIC [5, 13] was 32 µg/mL and the MIC [5, 14] was 8 µg/mL.

In the case of “MSLRRHKLSRKASKRIFRKGASRTKTLNTRATPMRGGFRI [Chp9]”, the “MIC (μg/mL) against CFS-1292 in 100% CAA” value [1] is reported as 8 µg/mL, the MIC50 (Klebsiella pneumoniae) is reported as greater than 8 µg/mL and the MIC100 (Klebsiella pneumoniae) is reported as greater than 8 µg/mL. For the same sequence, the “MIC Range” value (Klebsiella pneumoniae) was greater than 8 µg/mL, the MIC (Klebsiella pneumoniae) was 1 µg/mL and the “45 hr MIC” value [2] was 8 µg/mL. It also gave an MIC50 (Pseudomonas aeruginosa) greater than 8 µg/mL, an MIC100 (Pseudomonas aeruginosa) greater than 8 µg/mL and an MIC50 (Acinetobacter baumannii) of 2 µg/mL. For the same sequence, the MIC100 (Acinetobacter baumannii) was 2 µg/mL, the “MIC Range” value (Acinetobacter baumannii) was 0.5 to 2 µg/mL and the MIC (Acinetobacter baumannii) was 4 µg/mL. For the same sequence, the “45 hr MIC” value (M. avium) was greater than 64 µg/mL, the “45 hr MIC” value (M. fortuitum) was 4 µg/mL and the MIC50 (Enterobacter cloacae) was 4 µg/mL. It also gave an MIC100 (Enterobacter cloacae) greater than 8 µg/mL, an MIC (Enterobacter cloacae) of 32 µg/mL and an MIC50 (Escherichia coli) of 2 µg/mL. For the same sequence, the MIC100 (Escherichia coli) was 8 µg/mL, the “MIC Range” value (Escherichia coli) was 0.5 to 8 µg/mL and the MIC (Escherichia coli) was 1 µg/mL. The MIC50 (S. maltophilia) was greater than 8 µg/mL, the MIC100 (S. maltophilia) was greater than 8 µg/mL and the “MIC (100% CAA)” value [3] was 2. The “45 hr MIC” value (M. intracellulare) was 4 µg/mL, the “45 hr MIC” value (M. smegmatis; M. smegmatis MC^2 155, Run #1) was 4 µg/mL and the “45 hr MIC” value (M. smegmatis; M. smegmatis MC^2 155, Run #2) was 8 µg/mL. The “45 hr MIC” value (M. scrofulaceum) was 8 µg/mL, the MIC [4, 6] was 8 µg/mL and the MIC [4, 7] was greater than 8 µg/mL. The MIC [4, 8] was greater than 8 µg/mL, the MIC [4, 9] was greater than 8 µg/mL and the MIC [4, 10] was greater than 8 µg/mL. It also gave an MIC [4, 11] greater than 8 µg/mL, an MIC [4, 12] of 8 µg/mL and an MIC [5, 13] of 32 µg/mL. The MIC [5, 14] was 16 µg/mL.
